Key:
[1] = tested on: antigen-positive COLO 205 cells; assay: MTT-based cytotoxicity assay, COLO 205 cells (Example 2); format: cell-based, human; details: conjugates 4-day exposure
Protocol: (§1) The anti-tumor activity of the two conjugates was assessed in SCID mice bearing subcutaneous HT-29 or COLO 205 tumors (both CanAg-positive human colon adenocarcinoma).
(§2) The two major metabolites, S-methyl-DM4 and lysine-N^ε—SMCC-DM1, were synthesized and tested for their in vitro cytotoxicity against COLO 205 cells and Namalwa cells.

[2] = tested on: antigen-negative Namalwa cells; assay: MTT-based cytotoxicity assay, Namalwa cells (Example 2); format: cell-based, human; details: free maytansinoids
Protocol: as §1, §2

COLO 205 cells = assay: Cell cycle studies (G2/M arrest, DNA content by FACS) in COLO 205 cells; format: cell-based, human
Protocol: Exponentially growing COLO 205 cells were resuspended at 1-2×10^5 cells/mL before drug or conjugate treatment. […] DNA content analysis was performed using FACSCalibur (Becton Dickinson, San Jose, Calif.). 10,000 events per sample were collected, and FL2-A histograms generated for each sample. The cell cycle analysis software, ModFit LT 3.1 (Verity Software House, Topsham, Me.) was used to determine the percentage of cells in different phases of the cell cycle.
Samples of asynchronously growing cells were exposed to conjugate (3 nM), or DM1-SMe (10 nM see FIG. 16 for structure), or nocodazole (0.66 μM) another inhibitor of microtubule polymerization, at 37° C. for 20 h and the DNA content of the cells was then analyzed by flow cytometry.
COLO 205 cells were first synchronized with a 24-hr treatment of aphidicolin, a reversible DNA replication inhibitor that blocks cells in S phase (Ikegami S. et al., Nature, 275, 458-460 ((1978)). Since the majority of the asynchronous population of COLO 205 cells were in G1 phase, most of the aphidicolin-treated cells arrested in the beginning of S phase, which cannot be distinguished from G1 phase in the FACS analysis (FIG. 11B, top picture). The synchronized cells were then released from the arrest by the removal of aphidicolin, and either left untreated, or treated with DM1-SMe or with either conjugate.

[3] = single intravenous dose of 12.5 μg/kg; cited from earlier work
[4] = Thiol-disulfide interchange of DM4 in RPMI 1640 medium; details: buffer
Protocol: To further test whether any of the metabolites in the media was a disulfide compound, a cell supernatant sample from a 26-hour exposure was divided into two equal portions of which one was subjected directly to chromatography, and the other portion was treated with DTT and selenol before chromatography to reduce all disulfide bonds (18).

## COc1cc2cc(c1Cl)N(C)C(=O)C[C@H](OC(=O)[C@H](C)N(C)C(C)=O)[C@]1(C)O[C@H]1[C@H](C)[C@@H]1C[C@@](O)(NC(=O)O1)[C@H](OC)/C=C/C=C(\C)C2 [maytansine, reference compound]
[1]; Homo sapiens, COLO 205, 96 h
  IC50: 30 to 60 pM
[2]; Homo sapiens
  IC50: 30 to 60 pM

## CO/C1=C\C(C)=C\[C@@H](C)[C@@H](O)[C@@H](C)C/C(C)=C/C=C/[C@H](OC)[C@@H]([C@@H](C)[C@@H](O)[C@H](C)[C@@]2(O)C[C@@H](O)[C@H](C)[C@@H](C(C)C)O2)OC1=O [BafA1, Bafilomycin A1, reference compound]
COLO 205 cells; BafA1 alone
  distribution of cells between the phases of the cell cycle: did not significantly alter the distribution of cells

## COc1c(O)c2c(c3cc(C(=O)N4CCc5c4c(O)c(OC)c4[nH]c(C(=O)N6CC7CC78C6=CC(=O)c6[nH]cc(C)c68)cc54)[nH]c13)CCN2C(N)=O (stereo not drawn) [CC-1065]
[3]
  toxicity after administration to mice: delayed hepatotoxicity leading to mortality on day 50

## COc1cc2cc(c1Cl)N(C)C(=O)C[C@H](OC(=O)[C@H](C)N(C)C(=O)CCSSC)[C@]1(C)O[C@H]1[C@H](C)[C@@H]1C[C@@](O)(NC(=O)O1)[C@H](OC)/C=C/C=C(\C)C2 [DM1-SMe, N^2′-deacetyl-N^2′-[(3-methyldithio)-1-oxopropyl]-maytansine]
COLO 205 cells; 20 h, 30 μM chloroquine, 10^−8 M DM1-SMe, 3×10^−9 M huC242-SMCC-DM1
  cells in G2 in the presence of chloroquine: 51%
COLO 205 cells; synchronized cells, after 10 h and after 18 h
  cells in G2/M phase after release from aphidicolin: 75% to 85%

## COc1cc2cc(c1Cl)N(C)C(=O)C[C@H](OC(=O)[C@H](C)N(C)C(=O)CCC(C)(C)SC)[C@]1(C)O[C@H]1[C@H](C)[C@@H]1C[C@@](O)(NC(=O)O1)[C@H](OC)/C=C/C=C(\C)C2 [S-methyl-DM4, N^2′-deacetyl-N^2′-(4-methylthio-4-methyl-1-oxopentyl)-maytansine]
[1]
  IC50: 2 pM
[2]
  IC50: 2 pM

## COc1cc2cc(c1Cl)N(C)C(=O)CC(OC(=O)C(C)N(C)C(=O)CCC(C)(C)S)C1(C)OC1C(C)C1CC(O)(NC(=O)O1)C(OC)/C=C/C=C(\C)C2 (stereo not drawn) [DM4, N^2′-deacetyl-N-^2′(4-methyl-4-mercapto-1-oxopentyl)-maytansine]
[4]
  half-life: < 1 h

Source: patent publication US8388960B2, “Elimination of heterogeneous or mixed cell population in tumors” (priority 2005, dated 2013)
